Where a name gives a salt, the structure may show the parent alone. Read-outs that look alike come from different tables or passages of the source.
How the values were obtained:
PDK1 = PDK1 (Homo sapiens (Human), UniProt O15530); experiment: PDK1 kinase assay (coupled PDK1/AKT/FAM-crosstide assay, IMAP fluorescence polarization); type: biochemical
Summary of the method: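 GST-tagged PDK1 (aa 51-359, 0.75 nM) was coupled to unphosphorylated GST-AKT2 140-467-PIFtide (10 nM) and 100 nM FAM-crosstide at 40 μM ATP, in Tris pH 7.2 buffer, for 30 min at 25 °C. Crosstide phosphorylation was read by IMAP fluorescence polarization (ΔmP) and fitted with a 4-parameter curve.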

[1] = system: phospho-akt (Thr308) in PC-3 cells; experiment: Inhibition of phospho-akt (Thr308) in PC-3 cells, MSD phospho-akt 308 ELISA kit; type: cell-based; conditions: Homo sapiens, 2 hours, no serum, read-out: EC50
Summary of the method: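 Phospho-Akt (Thr308) levels were measured by MSD ELISA after PC-3 cells received compound for 2 hours in serum-free medium. Controls: DMSO (high), 5 μM wortmannin (low).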

[2] = inhibition of phospo-PDK1 in vitro
[3] = inhibition of P308 Akt in PC-3 cells, MSD
[4] = inhibition of P308 Akt in PC-3 cells using MSD
[5] = PC-3, 2 h, inhibition of P308 Akt in PC-3 cells, MSD

Chain of PDK1 (O15530 51-359): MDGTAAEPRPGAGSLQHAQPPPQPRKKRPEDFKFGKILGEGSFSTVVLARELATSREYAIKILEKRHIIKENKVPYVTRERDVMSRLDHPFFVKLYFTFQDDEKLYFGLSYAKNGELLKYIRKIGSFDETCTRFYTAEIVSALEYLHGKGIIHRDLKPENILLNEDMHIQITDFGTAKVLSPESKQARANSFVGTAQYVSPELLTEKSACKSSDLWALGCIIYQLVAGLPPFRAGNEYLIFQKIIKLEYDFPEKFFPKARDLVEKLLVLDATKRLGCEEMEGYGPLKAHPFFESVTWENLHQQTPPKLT

SMILES	IC50 (PDK1; [2])	EC50 [1, 3]	IC50 (PDK1; inhibition of PDK1 in vitro)	EC50 [1, 4]	EC50 [1, 5]
CC(C)Oc1cc(CNc2ncccc2C(=O)NCc2ccc(F)c(F)c2)cc(-c2c[nH]c3ncc(C(=O)NC4CC4)cc23)c1 [Example 4.1.3, N-cyclopropyl-3-{3-[({3-[(3,4-difluoro-benzyl)carbamoyl]pyridin-2-yl}amino)methyl]-5-(propan-2-yloxy)phenyl}-1H-pyrrolo[2,3-b] pyridine-5-carboxamide]	< 100 nM	< 1000 nM	–	–	–
Nc1n[nH]c2ncc(-c3ccc(CNc4ncc(C(F)(F)F)cc4C(=O)NCC4CCCC4)cc3)cc12 [Example 264, 2-(4-(3-amino-1H-pyrazolo [3,4-b]pyridin-5-yl)benzylamino)-N-(cyclopentylmethyl)-5-(trifluoromethyl) nicotinamide]	–	–	< 100 nM	1000 to 10000 nM	–
COCCNC(=O)c1c(C)[nH]c(/C=C2\C(=O)Nc3cc(/C=C/CNc4ncccc4C(=O)NCc4ccc(F)c(F)c4)ccc32)c1C [Example 15.19, N-(3,4-difluorobenzyl)-2-((E)-3-((Z)-3-((4-(2-methoxyethylcarbamoyl)-3,5-dimethyl-1H-pyrrol-2-yl]-methylene)-2-oxoindolin-6-yl)allylamino) nicotinamide]	< 100 nM	< 1000 nM	–	–	–
Nc1ncnc2c1c(-c1ccc(CNc3ncc(C(F)(F)F)cc3C(=O)Nc3ccc(F)cc3)cc1)cn2CCO [Example 324, 2-(4-(4-amino-7-(2-hydroxyethyl)-7H-pyrrolo [2,3-d]pyrimidin-5-yl)benzylamino)-N-(4-fluorophenyl)-5-(trifluoromethyl)nicotinamide]	–	–	< 100 nM	< 1000 nM	–
Nc1ncnc2ccc(-c3ccc(CNc4ncccc4C(=O)Nc4cc(F)cc(F)c4)s3)cc12 [Example 3.85, 2-({[5-(4-aminoquinazolin-6-yl)thiophen-2-yl]methyl}amino)-N-(3,5-difluorophenyl)-pyridine-3-carboxamide (TFA salt)]	1000 to 5000 nM	–	–	–	> 10000 nM
CC(C)(C)NS(=O)(=O)c1cnc(NCc2ccc(-c3ccc4ncnc(N)c4c3)s2)c(C(=O)NCc2ccc(F)c(F)c2)c1 [Example 8.6.20, 2-(((5-(4-aminoquinazolin-6-yl)thiophen-2-yl)methyl)amino)-5-(N-tert-butylsulfamoyl)-N-(3,4-difluorobenzyl)nicotinamide]	100 to 1000 nM	> 10000 nM	–	–	–
C[C@@H](c1ccc(F)cc1)n1cnc2ccnc(NCc3ccc(-c4ccc5ncnc(N)c5c4)s3)c2c1=O [Ex. 7.9]	< 100 nM	< 1000 nM	–	–	–
CN(C)CCNC(=O)c1cnc(NCc2ccc(-c3ccc4ncnc(N)c4c3)s2)c(C(=O)NCc2ccc(F)c(F)c2)c1 [Example 7.24.2, 2-({[5-(4-aminoquinazolin-6-yl)thiophen-2-yl]methyl}amino)-N^3-(3,4-difluorobenzyl)-N^5-[2-(dimethylamino)ethyl] pyridine-3,5-dicarboxamide]	100 to 1000 nM	–	–	–	1000 to 10000 nM
C[C@H](NC(=O)c1cc(C#N)cnc1NC/C=C/c1ccc2c(c1)NC(=O)/C2=C\c1cnc[nH]1)c1ccc(F)cc1 [Example 15.4, 2-((E)-3-((Z)-3-((1H-imidazol-5-yl)methylene)-2-oxoindolin-6-yl)allylamino)-5-cyano-N-((S)-1-(4-fluorophenyl)ethyl)nicotinamide]	< 100 nM	< 1000 nM	–	–	–
Nc1ncc(-c2ccc(CNc3ncc(C(F)(F)F)cc3C(=O)Nc3ccc(F)cc3)cc2)nc1O[C@@H]1CCC[C@H]1N [Example 173, 2-{4-[5-Amino-6-((1R,2R)-2-amino-cyclopentyloxy)-pyrazin-2-yl]-benzylamino}-N-(4-fluoro-phenyl)-5-trifluoromethyl-nicotinamide]	–	–	< 100 nM	< 1000 nM	–
Cc1ccc(F)cc1CNC(=O)c1cccnc1NCc1ccc(-c2ccc3ncnc(N)c3c2)s1 [Example 3.18, 2-({[5-(4-aminoquinazolin-6-yl)thiophen-2-yl]methyl}amino)-N-(5-fluoro-2-methylbenzyl) pyridine-3-carboxamide (TFA salt)]	100 to 1000 nM	> 10000 nM	–	–	–
NC(=O)c1cc(CNc2ncccc2C(=O)NCc2ccc(F)c(F)c2)ccc1-n1ccnc1 [Example 50, 2-(3-carbamoyl-4-(1H-imidazol-1-yl)benzylamino)-N-(3,4-difluorobenzyl)nicotinamide]	–	–	> 5000 nM	> 10000 nM	–
C[C@H](NC(=O)c1cc(C#N)cnc1NCc1ccc(-c2cnc(N)c(O[C@H]3CCNC3)n2)cc1)c1ccc(F)cc1 [Example 162, 2-{4-[5-Amino-6-((S)-pyrrolidin-3-yloxy)-pyrazin-2-yl]-benzylamino}-5-cyano-N-[(S)-1-(4-fluoro-phenyl)-ethyl]-nicotinamide]	–	–	< 100 nM	< 1000 nM	–
CCCc1n[nH]c2ncc(-c3ccc(CNc4ncc(C#N)cc4C(=O)N[C@@H](C)c4ccc(F)cc4)cc3)cc12 [Example 147, (S)-5-cyano-N-(1-(4-fluorophenyl)ethyl)-2-(4-(3-propyl-1H-pyrazolo[3,4-b]pyridin-5-yl)benzyl-amino)nicotinamide]	–	–	< 100 nM	1000 to 10000 nM	–
Nc1ncnc2ccc(-c3ccc(CNc4ncccc4C(=O)NCc4ccc(Cl)c(Cl)c4)s3)cc12 [Example 3.29, 2-({[5-(4-aminoquinazolin-6-yl)thiophen-2-yl]methyl}amino)-N-(3,4-dichlorobenzyl) pyridine-3-carboxamide (TFA salt)]	100 to 1000 nM	1000 to 10000 nM	–	–	–
C[C@H](NC(=O)c1cccnc1NCc1cccc(-c2c[nH]c3ncnc(N)c23)c1)c1ccc(F)c(F)c1 [Example 2.30, (S)-2-(3-(4-amino-7H-pyrrolo[2,3-d]pyrimidin-5-yl)benzylamino)-N-(1-(3,4-difluorophenyl)ethyl) nicotinamide]	< 100 nM	1000 to 10000 nM	–	–	–
O=C(NCc1ccc(F)c(F)c1)c1cccnc1NCc1ccc(-c2ccc3ncnc(NCCN4CCCC4)c3c2)s1 [Example 4.20, N-(3,4-difluorobenzyl)-2-(((5-(4-(2-(pyrrolidin-1-yl)ethylamino)quinazolin-6-yl)thiophen-2-yl)methyl)amino)nicotinamide]	100 to 1000 nM	> 10000 nM	–	–	–
C[C@H](NC(=O)c1cc(C(F)(F)F)cnc1NCc1ccc(-c2cnc3[nH]nc(N)c3c2)cc1)c1ccc(Br)cc1 [Example 282, (S)-2-(4-(3-amino-1H-pyrazolo [3,4-b]pyridin-5-yl)benzylamino)-N-(1-(4-bromophenyl)ethyl)-5-(trifluoromethyl)nicotinamide]	–	–	< 100 nM	1000 to 10000 nM	–
C[C@H](NC(=O)c1cc(C#N)cnc1NCc1ccc(-c2cnc(N)c(CCCN)n2)cc1)c1ccc(F)cc1 [Example 70, 2-{4-[5-Amino-6-(3-amino-propyl)-pyrazin-2-yl]-benzylamino}-5-cyano-N-[(S)-1-(4-fluoro-phenyl)-ethyl]-nicotinamide]	–	–	< 100 nM	< 1000 nM	–
O=C(NCc1ccc(F)c(F)c1)c1cccnc1N[C@@H](COc1ccc2[nH]c(=O)[nH]c2c1)c1ccccc1 [Example 16.1, (R)-N-(3,4-difluorobenzyl)-2-(2-(2-oxo-2,3-dihydro-1H-benzo[d]imidazol-5-yloxy)-1-phenylethylamino)nicotinamide]	< 100 nM	< 1000 nM	–	–	–
CC(C)Oc1cc(CNc2ncccc2C(=O)NCc2ccc(F)c(F)c2)cc(-c2ccc3ncncc3c2)c1 [Example 5.3, N-(3,4-difluorobenzyl)-2-(3-isopropoxy-5-(quinazolin-6-yl)benzylamino) nicotinamide]	100 to 1000 nM	> 10000 nM	–	–	–

Reference: US10030016B2 (Sunesis Pharmaceuticals, Inc., priority 2009, dated 2018)
